From ChEMBL document CHEMBL2057070, “Discovery of a novel azaindole class of antibacterial agents targeting the ATPase domains of DNA gyrase and Topoisomerase IV” (Bioorg Med Chem Lett, 2012)
pIC50: −log10 of the molar value. In brackets after ≈: the same amount, converted by molar mass.

Legend:
Staphylococcus aureus [1] = experiment: Antibacterial activity against methicillin-sensitive Staphylococcus aureus; assay type: functional
Streptococcus pneumoniae = experiment: Antibacterial activity against Streptococcus pneumoniae ARC548; assay type: functional
[2] = Lipophilicity, log D of the compound; conditions: octanol/water
DNA gyrase subunit B = DNA gyrase subunit B (Staphylococcus aureus, UniProt P0A0K8); experiment: Inhibition of Staphylococcus aureus DNA gyrase B expressed in Escherichia coli BL21(DE3) cells assessed ATP hydrolysis activity […] by malachite green reagent assay
[3] = Inhibition of Streptococcus pneumoniae DNA Topoisomerase 4 subunit ParE
Staphylococcus aureus [4] = experiment: Antibacterial activity against methicillin-, quinolone-resistant Staphylococcus aureus; assay type: functional
[5] = Ratio of IC50 for Staphylococcus aureus DNA gyrase B to IC50 for Streptococcus pneumoniae Topoisomerase ParE

Sequence of DNA gyrase subunit B (P0A0K8 whole entry): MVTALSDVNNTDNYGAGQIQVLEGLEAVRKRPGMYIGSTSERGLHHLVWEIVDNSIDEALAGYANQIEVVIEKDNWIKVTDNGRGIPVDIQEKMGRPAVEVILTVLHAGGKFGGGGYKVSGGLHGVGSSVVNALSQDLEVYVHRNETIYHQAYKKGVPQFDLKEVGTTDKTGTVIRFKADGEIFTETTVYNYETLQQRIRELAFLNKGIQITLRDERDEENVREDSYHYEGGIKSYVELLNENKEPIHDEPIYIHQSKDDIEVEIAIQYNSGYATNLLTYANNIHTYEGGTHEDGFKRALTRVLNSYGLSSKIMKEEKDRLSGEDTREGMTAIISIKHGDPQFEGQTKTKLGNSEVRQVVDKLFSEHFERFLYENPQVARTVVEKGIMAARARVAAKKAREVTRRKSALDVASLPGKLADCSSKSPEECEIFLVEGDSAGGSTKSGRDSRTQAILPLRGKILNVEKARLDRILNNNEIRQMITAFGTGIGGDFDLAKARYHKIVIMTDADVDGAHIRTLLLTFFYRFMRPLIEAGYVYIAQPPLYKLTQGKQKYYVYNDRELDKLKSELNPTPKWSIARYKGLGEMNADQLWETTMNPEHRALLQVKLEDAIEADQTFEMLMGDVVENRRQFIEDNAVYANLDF

SMILES | MIC (Staphylococcus aureus [1]) [µM] | MIC (Streptococcus pneumoniae) [µM] | logD [2] | pIC50 (DNA gyrase subunit B) | pIC50 [3] | MIC (Staphylococcus aureus [4]) [µM] | Ratio IC50 [5]
CCNC(=O)c1cc2c(-n3ccc(C(F)(F)F)n3)c(-c3cncc(C(=O)O)c3)cnc2[nH]1 | > 25 | 6.25 (≈ 2.78 µg/mL) | -0.99 | – | – | – | –
CCNC(=O)c1cc2c(-n3nc(C(F)(F)F)cc3C)c(-c3cncc(C(=O)O)c3)cnc2[nH]1 | > 25 | 12.5 (≈ 5.73 µg/mL) | -0.88 | 6.88 | 7.19 | – | –
CCNC(=O)c1cc2c(-n3ccc(C(F)(F)F)n3)c(-c3cnc(OC)c(-c4n[nH]c(=O)o4)c3)cnc2[nH]1 | 0.78 (≈ 0.401 µg/mL) | < 0.03 | – | 8.40 | 8.52 | 1.56 (≈ 0.803 µg/mL) | –
CCNC(=O)c1cc2c(-n3ccc(C(F)(F)F)n3)c(-c3cncc(C#N)c3)cnc2[nH]1 | 3.13 (≈ 1.33 µg/mL) | 0.2 (≈ 0.0851 µg/mL) | 2.62 | 7.64 | 8.00 | 1.56 (≈ 0.664 µg/mL) | –
CCNC(=O)c1cc2c(-n3ccc(C(F)(F)F)n3)c(-c3cc(-c4n[nH]c(=O)o4)cnc3OC)cnc2[nH]1 | 0.098 (≈ 0.0504 µg/mL) | < 0.02 | 2.91 | 8.70 | 8.52 | 0.2 (≈ 0.103 µg/mL) | –
CCNC(=O)c1cc2c(-n3ccc(C(F)(F)F)n3)c(-c3cncc(-c4n[nH]c(=O)o4)c3)cnc2[nH]1 | 0.4 (≈ 0.194 µg/mL) | < 0.03 | 1.65 | > 9.00 | 8.52 | 1.1 (≈ 0.533 µg/mL) | –
CC(C)NC(=O)c1cc2c(-n3ccc(C(F)(F)F)n3)c(-c3cncc(C(=O)O)c3)cnc2[nH]1 | > 25 | > 25 | -0.62 | 6.83 | 7.36 | – | –
CCCNC(=O)c1cc2c(-n3ccc(C(F)(F)F)n3)c(-c3cncc(C(=O)O)c3)cnc2[nH]1 | > 25 | > 25 | -0.79 | 7.24 | 7.35 | – | –
CCNC(=O)c1cc2c(-n3ccc(C(F)(F)F)n3)c(-c3cncc(C(=O)NC)c3)cnc2[nH]1 | 6.25 (≈ 2.86 µg/mL) | 0.098 (≈ 0.0448 µg/mL) | 2.21 | 7.96 | 7.80 | 12.5 (≈ 5.72 µg/mL) | –
CO[C@@H]1[C@@H](OC(N)=O)[C@@H](O)[C@H](Oc2ccc3c(O)c(NC(=O)c4ccc(O)c(CC=C(C)C)c4)c(=O)oc3c2C)OC1(C)C [NOVOBIOCIN] | 0.39 (≈ 0.239 µg/mL) | 0.78 (≈ 0.478 µg/mL) | – | – | – | 0.39 (≈ 0.239 µg/mL) | –
O=C(O)/C=C/c1cccc(-c2cnc3[nH]ccc3c2)c1 | > 200 | 200 (≈ 52.9 µg/mL) | 0.58 | – | – | – | –
CCNC(=O)c1cc2c(-n3ccc(C(F)(F)F)n3)c(-c3cncc(C(N)=O)c3)cnc2[nH]1 | 25 (≈ 11.1 µg/mL) | 0.2 (≈ 0.0887 µg/mL) | – | – | – | > 25 | –
O=C(O)c1cncc(-c2cnc3[nH]c(C(=O)NC4CC4)cc3c2-n2ccc(C(F)(F)F)n2)c1 | > 25 | 25 (≈ 11.4 µg/mL) | -0.98 | 7.41 | 8.22 | – | > 3
C[C@H]1COc2c(N3CCN(C)CC3)c(F)cc3c(=O)c(C(=O)O)cn1c23 [LEVOFLOXACIN] | 0.78 (≈ 0.282 µg/mL) | 3.13 (≈ 1.13 µg/mL) | – | – | – | > 25 | –
